Test results reported in PMC7898037, “Improving mitochondria and ER stability helps eliminate upper motor neuron degeneration that occurs due to mSOD1 toxicity and TDP‐43 pathology” (Clinical and Translational Medicine, 2021).
Where “and” joins values, the source holds several entries; their conditions need not be identical. Equal entries are not always repeated.

How the values were obtained:
[1] = tested on: UMNs of hSOD1^G93A‐UeGFP mice; assay: EM quantification of mitochondria and ER in UMNs, hSOD1^G93A‐UeGFP mice; type: in vivo
Procedure: (§1) hSOD1^G93A‐UeGFP, prpTDP‐43^A315T‐UeGFP and WT‐UeGFP mice were weighed and the required NU‐9 dose per weight was calculated (20 or 100 mg/kg), which was administered once daily by oral gavage, starting at postnatal day (P)60 and continuing until P120. Animals from the untreated group received the vehicle (NMP and olive oil) only. For oral administration purposes, 20 ga × 38 mm plastic feeding tubes were used (Instech Laboratories, Inc). The gavage tip was inserted into the mouth directly over the tongue and into the pharynx. While observing the swallowing reflex, the tip was safely and smoothly slid into the esophagus. Once the administration was completed, the gavage tip was pulled straight out.
Mice were perfused with EM grade 4% PFA. One hemisphere of the brain was sectioned at 50 µm thickness coronally on a vibratome (Leica VT1000S, Leica Inc., Nussloch, Germany). The sections were postfixed in 2% PFA and 0.5% glutaraldehyde for 1 h, they were cryoprotected with glycerol–dimethylsulfoxide (DMSO) mixture followed by freeze–thaw at least four times, and treated with 1% sodium borohydride. They were then treated with 0.3% H2O2–10% methanol in TBS (100 mM Tris–HCl and 150 mM NaCl, pH 7.6) and 5% normal goat serum–1% bovine serum albumin in TBS to block nonspecific binding of primary antibody. This mixture was incubated overnight with rat anti‐Ctip2 antibody (1:500, Thermo Fisher Scientific, Rockford, IL, USA). Biotinylated goat anti‐rat IgG (1:500, Vector Laboratories, Burlingame, CA, USA) was used as the secondary antibody, and diaminobenzidine (DAB) was applied as the chromogen (ABC Elite kit, Vector Laboratories, Burlingame, CA, USA). Sections were then postfixed in buffered 2% osmium tetroxide (OsO4) (Electron Microscopy Sciences, Hatfield, PA, USA), rinsed with distilled water, and stained in 1% uranyl acetate (Electron Microscopy Sciences, Hatfield, PA, USA), again rinsed with distilled water, dehydrated in ascending grades of ethanol with transition fluid propylene oxide (Electron Microscopy Sciences, Hatfield, PA, USA), embedded in the resin mixture with Embed 812 (Electron Microscopy Sciences, Hatfield, PA, USA), and cured in a 60°C oven for 3 days. The sections in which primary motor cortex was present and visible under bright‐field illumination on a dissecting scope were selected. Approximately, 5‐mm‐wide × 7‐mm‐long pieces of the motor cortex from these sections were dissected under the microscope mounted on a resin block and were sectioned on a Leica Ultracut UC6 ultramicrotome (Leica Inc., Nussloch, Germany). The motor cortex was further trimmed, and only layer 5 was kept intact for preparing ultrathin sections. UMNs were identified based on the presence of Ctip2 immunohistochemistry (DAB) in their nuclei (Figure S1). Seventy‐nanometer‐thin sections were collected on 200‐mesh copper–palladium grids. Grids were counterstained with 8% radioactive depleted uranyl acetate and 0.2% lead citrate. Grids were examined on FEI Tecnai Spirit G2 TEM (FEI company, Hillsboro, OR, USA), and digital images were captured on a FEI Eagle camera.
EM images of Betz cells of normal control and patients, Ctip2‐positive (Ctip2^+) UMN of WT, and hSOD1^G93A‐UeGFP and prpTDP‐43^A315T‐UeGFP mice (Figure S1) were acquired from 70‐nm ultrathin sections of the motor cortex, and EM images were taken on FEI Tecnai Spirit G2 TEM using FEI Eagle camera. Mitochondria were quantified, as described previously. ^34 Mitochondria with intact outer and inner membrane and with intact cristae were considered healthy. Mitochondria with morphological defects, such as broken outer and/or inner membrane and cristae, were counted individually and were reported as percentage of defective mitochondria. ER that are disintegrated and that display profound expansion were considered unhealthy. Length of ER cisternae was measured using line tool of ImageJ software (NIH) upon calibration for pixels/micrometer using set scale function. […]

[2] = tested on: UMN apical dendrites of hSOD1^G93A‐UeGFP mice; assay: UMN apical dendrites with vacuoles, hSOD1^G93A‐UeGFP mice; type: in vivo; settings: for Mean, Fig. 4G (UMN apical dendrites with vacuoles): hSOD1G93A-UeGFP mice; for percentage of UMNs with vacuolated apical dendrites: hSOD1^G93A‐UeGFP mice
Procedure: as §1
Mice were deeply anesthetized using ketamine (90 mg/kg) with xylazine (10 mg/kg), and transcardially perfused with 4% PFA in PBS. The brains were removed intact and postfixed (4% PFA, overnight) and stored in PBS with sodium azide (0.01%) at 4°C. Sections were cut in a coronal (50 µm) plane using a vibratome (Leica) and processed for immunocytochemical analyses.
The antibodies used are as follows: anti‐GFP (1:1000, Invitrogen; or 1:1000, Abcam) and anti‐misfolded SOD1 (B8H10, 1:250, Médimabs). Briefly, sections were treated with blocking solution (PBS, 0.05% BSA, 2% FBS, 1% Triton X‐100, and 0.1% saponin) for 30 min at room temperature and incubated with primary antibody diluted in blocking solution overnight at 4°C. Appropriate secondary fluorescent antibodies (1:500, AlexaFluor‐conjugated, Invitrogen) were added to the blocking solution at room temperature for 2 h in the dark.

[3] = design: method as in PMID 22189273, PMID 22837812; settings: cited from earlier work
[4] = cited from earlier work
[5] = hSOD1G93A-UeGFP (NU-9 100 mg/kg/day)
[6] = hSOD1^G93A‐UeGFP mice, 100 mg/kg/day oral gavage P60–P120, at P120

C[C@H](Oc1cc(C(F)(F)F)cc(C(F)(F)F)c1)C1CC(=O)CC(=O)C1 [NU‐9]
Fig. 2O group mean (total number of mitochondria/UMN) [1, 5]: 21.13 | Fig. 2P group mean (percentage of healthy mitochondria/UMN) [1, 5]: 86.3 | Fig. 2R group mean (average length of ER cisternae/UMN) [1, 5]: 1.136 | average length of ER cisternae [1, 6]: 1.13 ± 0.1 µm | number of healthy ER cisternae [1, 6]: 14 ± 2 ER cisternae/UMN/section | percentage of healthy mitochondria in UMNs [1, 6]: 86% ± 3% | total number of mitochondria in UMNs [1, 6]: 21 ± 2 mitochondria/UMN/section | Mean, Fig. 4G (UMN apical dendrites with vacuoles) ([2]; NU-9 20 mg/kg/day): 43.86 | Mean, Fig. 4G (UMN apical dendrites with vacuoles) ([2]; NU-9 100 mg/kg/day): 23.28 | Mean Diff., Fig. 4G, GS Vehicle vs. GS NU-9 (20) ([2]; hSOD1G93A-UeGFP vehicle minus NU-9 20 mg/kg/day, Tukey's multiple comparisons test): 32.38 | Mean Diff., Fig. 4G, GS Vehicle vs. GS NU-9 (100) ([2]; hSOD1G93A-UeGFP vehicle minus NU-9 100 mg/kg/day, Tukey's multiple comparisons test): 52.96 | percentage of UMNs with vacuolated apical dendrites ([2]; 20 mg/kg/day oral gavage P60–P120): 44% ± 7% | percentage of UMNs with vacuolated apical dendrites ([2]; 100 mg/kg/day oral gavage P60–P120): 23% ± 10% | Plasma protein binding [3]: 90% | Brain penetration [4]: 8 µM and 8.3 µM | blood brain barrier crossing [4]: crossed the blood brain barrier | t 1/2 ([4]; in vivo, mice): 2.7 h and 2.73 h | Blood levels (t max) ([4]; ip, mice, dose 500 mg/kg): 12 h (500 mg/kg) | Oral bioavailability ([4]; mice): 94% | CL (mouse) ([4]; mouse): 44 mL/min/kg | AUC ([4]; po): 3452 h‐ng/ml po
